Results: patent US20060241108A1, “Substituted phenoxazines and acridones as inhibitors of AKT” (St. Jude Children's Research Hospital, priority 2005, published 2006)

Experiments:
Type in all cases: cell-based, human
AKT, mTOR and rpS6 [1] = test: IGF-1-induced phosphorylation of AKT, mTOR and rpS6 in serum-starved Rh30 cells
Experimental: (§1) Cellular screening for inhibitors. Rh1, Rh18 and Rh30 cells can each be seeded at a density of 4×10^6/10-cm plate in serum-free medium for overnight attachment. The cells can then be exposed to 0.1% DMSO or to a test compound (for example, a phenoxazine or acridone compound) for one hour, then stimulated with Insulin-like growth factor-I (IGF-I) (10 ng/ml) for 10 minutes.
(§2) Western blot analysis. Cells are rapidly washed with ice-cold phosphate-buffered saline (PBS), placed on ice, and lysed in mammalian protein extraction reagent (M-PER; available from Pierce, Rockford, Ill.) containing one Complete™ mini protease inhibitor tablet (available from Boehringer Mannheim, Mannheim, Germany), 1 mM phenylmethylsulfonyl fluoride, 1 mM Na3VO4 and 1 mM NaF. Cellular debris is pelleted by centrifugation at 17,500×g for 10 minutes at 4° C. The protein concentration of the supernatants is measured by the bicinchoninic acid assay (e.g., using the BCA™ Protein Assay Kit, Pierce, Rockford, Ill., catalog number 23225 or 23227) using bovine serum albumin as the standard. […]

[2] = test system: Rh1, Rh18 and/or Rh30 cells; test: Determination of apoptosis, cell line not specified for the result
Excerpt: Determination of apoptosis.
Similar experiments can be performed using compounds that are relatively poor inhibitors of AKT in vitro but, preferably, are chemically similar to the phenoxazine or other compounds tested that are effective inhibitors of AKT. For example, the apoptosis of cells in response to the phenoxazine compound 12B or 20B, which are relatively poor inhibitors of AKT in vitro, can be compared to apoptosis of cells in response to the chemically similar compounds 10B and/or 15B, which are effective AKT inhibitors. In this way, a skilled practitioner can evaluate whether apoptosis observed in response to an effective AKT inhibitor (e.g., apoptosis observed in response to compound 10B or 15B) is due to a general toxic effect rather than AKT inhibition.

AKT, mTOR and rpS6 [3] = test: IGF-1-induced phosphorylation of AKT, mTOR and rpS6 in serum-starved Rh18 cells
Experimental: as §1, §2

AKT = test: Inhibition of IGF-I stimulated AKT phosphorylation (Ser473) in Rh1 cells, Western blot; settings: 5 μM, 1 hour, serum starved Rh1 cells, IGF-I 10 ng/ml 10 minutes; average of two experiments
Experimental: Cell lines and growth conditions. The human cell lines Rh1, Rh18, and Rh30 (ATCC Deposit # CRL 2061) have been described, e.g., by Hazelton et al. Cancer Res 1987;47:4501-4507 and Hosoi et al. Cancer Res. 1999;59:886-894. Rh1, Rh18 and Rh30 cells can each be grown in antibiotic free RPMI-1640 medium (available from BioWhittaker, Walkersville, Md.), supplemented with 10% fetal bovine serum (available from HyClone Laboratories, Logan, Utah) and 2 mM L-glutamine (available from BioWhittaker, Walkersville, Md.) at 37° C. in an atmosphere of 5% CO2. For serum free experiments, cells can be cultured in modified N2E (MN2E) medium (DMEM/F-12, 1:1 mixture) (Sigma, St. Louis, Mo.) supplemented with 1 μg/ml human holo transferrin, 30 nM sodium selenite, 20 nM progesterone, 100 μM putrescine, 30 nM vitamin E phosphate, and 50 μM ethanolamine. Cells in MN2E medium containing 5 μg/ml bovine fibronectin (available from Sigma, St. Louis, Mo.) are preferably plated, and allowed to attach overnight at 37° C. in a humidified, 5% CO2 atmosphere.
as §1
Western blot analysis. Cells are rapidly washed with ice-cold phosphate-buffered saline (PBS), placed on ice, and lysed in mammalian protein extraction reagent (M-PER; available from Pierce, Rockford, Ill.) containing one Complete™ mini protease inhibitor tablet (available from Boehringer Mannheim, Mannheim, Germany), 1 mM phenylmethylsulfonyl fluoride, 1 mM Na3VO4 and 1 mM NaF. Cellular debris is pelleted by centrifugation at 17,500×g for 10 minutes at 4° C. The protein concentration of the supernatants is measured by the bicinchoninic acid assay (e.g., using the BCA™ Protein Assay Kit, Pierce, Rockford, Ill., catalog number 23225 or 23227) using bovine serum albumin as the standard.
For the analysis of AKT, ERK-1/2, mTOR, p70S6 kinase, ribosomal protein S6 (rpS6 or S6), and glycogen synthase kinase 3 (GSK-3), equivalent amounts of protein can be separated on a 12% SDS-polyacrylamide gel (available from BioRad, Hercules, Calif.) by electrophoresis and subsequently transferred to a nitrocellulose membrane (also available from BioRad). After a 1 hour incubation in 1×TBS containing 0.05% Tween 20 and 5% blocking reagent (skim milk) (available from Upstate Biotechnology, Lake Placid, N.Y.) at room temperature, the wet nitrocellulose membranes are incubated with appropriate antibodies (available from Cell Signaling Technology, Beverly, Mass.): rabbit polyclonal antiserum specific for the phosphorylated Ser473 or Thr308 of AKT (dilution 1:1000); rabbit polyclonal antiserum specific for phosphorylated Thr202/Tyr204 of ERK-1/2 (dilution 1:1000); rabbit polyclonal antiserum specific for phosphorylated Ser2448 or Ser2481 of mTOR (dilution 1:1000); rabbit polyclonal antiserum specific for phosphorylated Thr389 of p70S6 kinase (dilution 1:4000); rabbit polyclonal antiserum specific for phosphorylated Ser235/236 of rpS6 (dilution 1:1000); or rabbit polyclonal antiserum specific for phosphorylated Ser21/9 of GSK-3α/β (dilution 1:1000). Horseradish peroxidase-conjugated goat anti-rabbit IgG antibody (dilution 1:10,000) can be used as the secondary antibody. Immunoreactive protein can be visualized using Renaissance chemiluminescence reagent (available from Life Science Products Inc., Boston, Mass.).
For these assays, Rh1 cells are seeded in serum-free medium for overnight attachment. The serum starved Rh1 cells are then exposed to 1-5 μM of a compound in Table I for 1 hour before stimulating with IGF-I (10 ng/ml) for 10 minutes. […]

10-(N-pyrrolidinoacetyl)-2-chlorophenoxazine [Compound 20B]
block of IGF-1-induced phosphorylation of AKT, mTOR and rpS6 (AKT, mTOR and rpS6 [1]): possible exception
induction of apoptosis [2]: neither the compound 12B or 20B
block of IGF-1-induced phosphorylation of AKT, mTOR and rpS6 (AKT, mTOR and rpS6 [3]): possible exception
Inhibition (phosphorylation of AKT at Ser 473) (AKT): −−− (−−− <25% inhibition)
